Usually IC50 stands for the concentration needed to halve the response being measured. A low value points to inhibition by little substance.

The record followed here is patent publication US5552421A, “Leukotriene biosynthesis inhibitors” (Boehringer Ingelheim Pharmaceuticals, Inc., priority 1995, dated 1996).

The subject of assay [1] is LTB4 biosynthesis in human polymorphonuclear leukocytes (PMNs). Description: Inhibition of LTB4 biosynthesis in human polymorphonuclear leukocytes (PMNs). The assay is classed as cell-based. Particulars: Homo sapiens, Leukocyte, values with <: see footnote d, Table 1. The protocol: Inhibition of LTB4, biosynthesis in human polymorphonuclear leukocytes (PMNs)
The inhibition of leukotriene biosynthesis is measured by determining whether and to what extent test compounds can inhibit LTB4 production from endogenous arachidonic acid in human peripheral blood leukocytes.
To 48-well tissue culture plates was added a solution of the test compound followed by addition of human polymorphonuclear leukocytes isolated from peripheral blood at a density of 1.5×10^6 cells/well. Culture plates were preincubated for fifteen minutes with shaking at 28° C. Cells were stimulated with calcium ionophore A23187 at a final concentration of 2.5 μM for an additional ten minutes. The reaction was terminated by the addition of an EGTA solution (10 mM final concentration)followed by centrifugation at 1500 rpm at 10° C. Supernatants were stored at -70° C. LTB4 levels were determined by RIA using a commercially available kit. Nonlinear regression analysis was used to calculate. IC50 values.
The following tables show % inhibition of LTB4 biosynthesis by compounds of the invention at test concentrations indicated, with the determined IC50 shown in μM.

Assay [2] deals with leukotriene component of antigen-induced bronchoconstriction. Put plainly: Antigen-Induced Bronchoconstriction in Guinea Pigs. The conditions noted are these: aerosol, vs placebo treated controls. The class given is in vivo, guinea pig (male Hartley). An excerpt: Antigen-Induced Bronchoconstriction in Guinea Pigs
This model measures the ability of a compound to block the leukotriene component of antigen-induced bronchoconstriction. Male Hartley guinea pigs are actively sensitized to ovalbumin, pretreated with mepyramine and indomethacin (to block the histamine and cyclooxygenase metabolite components respectively), and test compound (by aerosol administration). The guinea pigs are challenged with antigen (inhaled ovalbumin). Pulmonary function is measured by oscillatory mechanics as described by W. W. Wolyniec et al. (Agents and Actions 1991, 34, 1/2, 73). Results are expressed as percent inhibition of bronchoconstriction (resistance) in the test compound treated guinea pigs compared to placebo treated controls.
*Refers to amount of test compound inhaled by gunea pig. Compounds
administered by aerosolized freon/ethanol solution from metered dose

[3] abbreviates: Table 9, Miscellaneous Heterocycle.
[4] abbreviates: Table 14, Miscellaneous Compounds.

In turn, `c1ccc(C(CC2CCCCC2)Nc2nc3ccccc3o2)cc1` (stereo not drawn) [Compound 51, 2-(2-Cyclohexyl-1-phenyl]ethylaminobenzoxazole] had a half-maximal inhibitory concentration (IC50) in assay [1] (Table 3, Phenyl) of 6.9 nM. Besides, the “% Inhibition of bronchoconstriction (resistance)” value (from here on “% Inhibition”) in assay [2] (274 micrograms inhaled) was found to be 86%.

`COc1ccc(C(CC2CCCCC2)Nc2nc3ccccc3o2)cc1` (stereo not drawn) [Compound 56] displayed an IC50 in assay [1] (Table 3, Phenyl) of 550 nM. In assay [2] (95 micrograms inhaled), the “% Inhibition” value was 43%.

On to `Cc1ccc2oc(NC(CC3CCCCC3)c3ccccn3)nc2c1` (stereo not drawn) [Compound 81], for which the IC50 in assay [1] (Table 4, Pyridyl) stood at 3.1 nM. Also, the “% Inhibition” value worked out at 61% in assay [2] (2.8 micrograms inhaled), 64% in assay [2] (28 micrograms inhaled) and 64% in assay [2] (308 micrograms inhaled).

Compound `CC(C)c1ccc2oc(N[C@H](CNC(N)=O)Cc3ccccc3)nc2c1` [Compound 153] registered an IC50 in assay [1] (Table 8, Miscellaneous Acyclic) below 300 nM.

Regarding `CNC(=O)OC[C@H](Cc1ccccc1)Nc1nc2cc(C(C)C)ccc2o1` [Compound 154], in assay [1] (Table 8, Miscellaneous Acyclic), the IC50 is 63 nM.

In turn, `Fc1ccc(CC(Nc2nc3cc(Cl)ccc3o2)c2ncc[nH]2)cc1` (stereo not drawn) [Compound 155] returned an IC50 in assay [1] (setting [3]) of 290 nM.

In turn, `CC(C)c1ccc2oc(NC(Cc3ccc(F)cc3)c3ncc[nH]3)nc2c1` (stereo not drawn) [Compound 156] gave a half-inhibitory concentration (IC50) in assay [1] (setting [3]) of 90 nM.

As for `Cc1nc(CC(Nc2nc3cc(C(C)C)ccc3o2)c2ncc[nH]2)cs1` (stereo not drawn) [Compound 157], the IC50 in assay [1] (setting [3]) is below 1000 nM.

The compound `CC(C)c1ccc2oc(NC(Cc3cccc(Cl)c3)c3ncc[nH]3)nc2c1` (stereo not drawn) [Compound 158] came in with an IC50 in assay [1] (setting [3]) below 30 nM.

For `CC(C)c1ccc2oc(NC(Cc3cccc(Cl)c3)c3nccs3)nc2c1` (stereo not drawn) [Compound 159], the IC50 in assay [1] (setting [3]) was below 100 nM.

In the case of `Cc1csc(C(Cc2cccc(Cl)c2)Nc2nc3cc(C(C)C)ccc3o2)n1` (stereo not drawn) [Compound 160], the IC50 in assay [1] (setting [3]) is below 30 nM.

With `CC(C)c1ccc2oc(NC(Cc3ccccc3)c3cn[nH]c3)nc2c1` (stereo not drawn) [Compound 161], the IC50 in assay [1] (setting [3]) is below 100 nM.

`COC(=O)[C@H](CC1CCCCC1)Nc1nc2ncccc2o1` [Compound 162] registered an IC50 in assay [1] (Table 10, Oxazolopyridines) of 210 nM.

On to `c1ccc(C(CC2CCCCC2)Nc2nc3ncccc3o2)cc1` (stereo not drawn) [Compound 163], for which the half-maximal inhibitory concentration (IC50) in assay [1] (Table 10, Oxazolopyridines) amounted to 78 nM.

As for `Cc1ccc2oc(NC(CC3CCCCC3)c3ccccc3)nc2n1` (stereo not drawn) [Compound 164], 28 nM corresponded to half-maximal inhibition in assay [1] (Table 10, Oxazolopyridines) (IC50).

With `Cc1ccc2oc(NC(CC3CCCCC3)c3ccccn3)nc2n1` (stereo not drawn) [Compound 165], 26 nM corresponded to half-maximal inhibition in assay [1] (Table 10, Oxazolopyridines) (IC50). The “% Inhibition” value in assay [2] (5.6 micrograms inhaled) was 0%; in assay [2] (28 micrograms inhaled), 64%; in assay [2] (274 micrograms inhaled), 84%.

Compound `Cc1ccc2oc(NC(CC3CCCCC3)c3cccnc3)nc2n1` (stereo not drawn) [Compound 168] returned an IC50 in assay [1] (Table 10, Oxazolopyridines) of 300 nM.

For the compound `c1ccc(C(CC2CCCCC2)Nc2nc3cccnc3o2)cc1` (stereo not drawn) [Compound 170], it took 21 nM to reach half-maximal inhibition in assay [1] (Table 10, Oxazolopyridines) (IC50).

Compound `c1ccc(C(CC2CCCCC2)Nc2nc3cccnc3s2)cc1` (stereo not drawn) [Compound 172, 2-[(2-Cyclohexyl-1-phenylethyl)amino]thiazolo[5,4-b]pyridine] displayed an IC50 in assay [1] (Table 11, Thiazolopyridines) of 27 nM.

Compound `c1cncc(C(CC2CCCCC2)Nc2nc3cccnc3s2)c1` (stereo not drawn) [Compound 173] showed an IC50 in assay [1] (Table 11, Thiazolopyridines) of 170 nM.

`c1ccc(C(CC2CCCCC2)Nc2nc3cccnc3s2)nc1` (stereo not drawn) [Compound 174]: the IC50 in assay [1] (Table 11, Thiazolopyridines) turned out to be 27 nM.

In the case of `Cc1cnc2nc(NC(CC3CCCCC3)c3ccccn3)sc2c1` (stereo not drawn) [Compound 184], in assay [1] (Table 11, Thiazolopyridines), the IC50 worked out at 31 nM.

On to `Cc1nc2nc(NC(CC3CCCCC3)c3ccccn3)sc2cc1Br` (stereo not drawn) [Compound 185], for which the concentration for half-maximal inhibition (IC50) in assay [1] (Table 11, Thiazolopyridines) is 6.5 nM.

Regarding `Cc1nc2nc(NC(CC3CCCCC3)c3cccnc3)sc2cc1Br` (stereo not drawn) [Compound 186], 21 nM corresponded to half-maximal inhibition in assay [1] (Table 11, Thiazolopyridines) (IC50).

In turn, `Cc1ccc2sc(NC(CC3CCCCC3)c3ccccn3)nc2n1` (stereo not drawn) [Compound 187] registered an IC50 in assay [1] (Table 11, Thiazolopyridines) of 13 nM.

As for `Clc1cnc2nc(NC(CC3CCCCC3)c3ccccn3)sc2c1` (stereo not drawn) [Compound 188], half-maximal inhibition in assay [1] (Table 11, Thiazolopyridines) (IC50) was put at 3.9 nM.

`Fc1ccc(CC(Nc2nc3ncc(Cl)cc3s2)c2ccccn2)cc1` (stereo not drawn) [Compound 189] had an IC50 in assay [1] (Table 11, Thiazolopyridines) of 28 nM.

Regarding `Cc1cnc2nc(NC(CC3CCCCC3)c3ccccc3)sc2c1` (stereo not drawn) [Compound 191], the IC50 in assay [1] (Table 11, Thiazolopyridines) is below 1000 nM.

On to `Cc1cnc2nc(NC(Cc3ccc(F)cc3)c3ccccn3)sc2c1` (stereo not drawn) [Compound 192], for which the concentration for half-maximal inhibition (IC50) in assay [1] (Table 11, Thiazolopyridines) is below 300 nM.

With `COC(=O)[C@H](Cc1cn(C)cn1)Nc1nc2cc(C(C)C)ccc2o1` [Compound 201], the concentration for half-maximal inhibition (IC50) in assay [1] (setting [4]) was below 1000 nM.

`CC(C)c1ccc2oc(NC(Cc3cccc(Cl)c3)c3nccn3C)nc2c1` (stereo not drawn) [Compound 202] displayed an IC50 in assay [1] (setting [4]) below 100 nM.
